From US9321776B2, “Isochromene derivatives as phoshoinositide 3-kinases inhibitors” (CHIESI FARMACEUTICI S.p.A., priority 2013, dated 2016)
pIC50: −log10 of the molar value. Structures can show the parent of a compound that is named as a salt.

Columns and labels:
[1] = target: T1, PI3Kδ (Homo sapiens, UniProt O00329); assay: PI3K enzyme inhibitory activity in the cell free assay (ADP-Glo Kinase Assay); type: biochemical; settings: human recombinant PI3Kδ, ATP 80 μM; read-out: PI3K delta inhibition
T1 construct: purchased Millipore Ltd (Billerica, Mass.)
T1 sequence (O00329 1-1044): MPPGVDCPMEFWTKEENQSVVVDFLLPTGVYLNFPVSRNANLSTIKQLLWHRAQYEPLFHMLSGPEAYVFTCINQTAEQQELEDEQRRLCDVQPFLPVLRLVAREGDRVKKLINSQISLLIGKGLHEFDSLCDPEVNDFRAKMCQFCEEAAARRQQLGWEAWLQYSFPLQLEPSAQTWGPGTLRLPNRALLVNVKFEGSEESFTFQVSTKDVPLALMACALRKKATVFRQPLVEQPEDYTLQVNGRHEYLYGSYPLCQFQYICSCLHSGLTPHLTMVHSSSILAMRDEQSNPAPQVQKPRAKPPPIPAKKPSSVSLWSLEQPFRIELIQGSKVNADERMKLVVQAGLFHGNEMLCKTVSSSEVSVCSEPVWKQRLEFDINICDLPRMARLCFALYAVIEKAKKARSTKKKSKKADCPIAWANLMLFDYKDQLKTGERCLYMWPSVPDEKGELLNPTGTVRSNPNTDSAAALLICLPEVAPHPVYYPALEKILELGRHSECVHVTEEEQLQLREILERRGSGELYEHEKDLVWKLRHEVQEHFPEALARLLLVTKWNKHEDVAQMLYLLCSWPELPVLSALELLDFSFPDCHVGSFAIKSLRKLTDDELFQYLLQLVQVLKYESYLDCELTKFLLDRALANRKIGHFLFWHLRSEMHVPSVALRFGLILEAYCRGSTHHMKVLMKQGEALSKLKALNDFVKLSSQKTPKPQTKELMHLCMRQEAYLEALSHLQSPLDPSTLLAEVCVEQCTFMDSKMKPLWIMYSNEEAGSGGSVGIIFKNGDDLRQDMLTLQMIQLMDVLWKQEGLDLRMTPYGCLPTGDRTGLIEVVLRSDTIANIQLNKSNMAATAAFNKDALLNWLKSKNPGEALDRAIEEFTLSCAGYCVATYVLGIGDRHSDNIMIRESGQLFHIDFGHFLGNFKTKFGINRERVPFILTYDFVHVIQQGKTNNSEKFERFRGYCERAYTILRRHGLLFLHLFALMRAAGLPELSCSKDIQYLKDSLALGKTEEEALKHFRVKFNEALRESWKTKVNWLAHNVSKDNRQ

[2] = target: T2, PI3Kγ (Homo sapiens, UniProt P48736); assay: as above; type: biochemical; settings: human recombinant PI3Kγ, ATP 30 μM; read-out: PI3K gamma inhibition
T2 construct: purchased Millipore Ltd (Billerica, Mass.)
T2 sequence (P48736 whole entry): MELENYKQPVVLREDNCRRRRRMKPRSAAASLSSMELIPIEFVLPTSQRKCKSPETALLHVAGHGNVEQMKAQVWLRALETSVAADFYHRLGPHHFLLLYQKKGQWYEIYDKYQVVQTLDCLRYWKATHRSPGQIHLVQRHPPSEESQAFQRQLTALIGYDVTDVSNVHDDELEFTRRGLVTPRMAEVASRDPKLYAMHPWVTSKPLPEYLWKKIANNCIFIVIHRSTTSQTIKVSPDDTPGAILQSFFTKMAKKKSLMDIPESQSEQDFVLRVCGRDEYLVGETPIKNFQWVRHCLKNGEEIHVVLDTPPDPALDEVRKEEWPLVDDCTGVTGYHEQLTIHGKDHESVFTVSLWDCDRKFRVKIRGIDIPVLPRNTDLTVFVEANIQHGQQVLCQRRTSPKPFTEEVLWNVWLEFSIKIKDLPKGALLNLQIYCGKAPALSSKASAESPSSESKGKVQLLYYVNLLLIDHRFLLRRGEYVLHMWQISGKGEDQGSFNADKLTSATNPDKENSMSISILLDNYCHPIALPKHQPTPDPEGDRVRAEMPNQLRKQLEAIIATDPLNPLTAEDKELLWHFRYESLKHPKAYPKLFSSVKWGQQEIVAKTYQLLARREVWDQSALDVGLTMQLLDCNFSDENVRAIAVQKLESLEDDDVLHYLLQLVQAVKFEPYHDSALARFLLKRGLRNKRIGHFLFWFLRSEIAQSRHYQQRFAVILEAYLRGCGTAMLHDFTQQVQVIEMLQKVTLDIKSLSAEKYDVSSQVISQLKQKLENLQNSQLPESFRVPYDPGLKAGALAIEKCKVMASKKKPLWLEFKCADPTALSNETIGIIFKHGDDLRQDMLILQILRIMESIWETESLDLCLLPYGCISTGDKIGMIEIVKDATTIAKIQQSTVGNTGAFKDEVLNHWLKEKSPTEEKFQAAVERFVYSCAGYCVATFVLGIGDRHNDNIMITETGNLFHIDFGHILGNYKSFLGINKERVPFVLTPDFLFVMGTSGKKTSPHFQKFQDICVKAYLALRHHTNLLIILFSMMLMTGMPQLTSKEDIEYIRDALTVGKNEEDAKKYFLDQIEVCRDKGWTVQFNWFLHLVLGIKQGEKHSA

SMILES: CC(c1oc(=O)c2ccccc2c1C1=CCN(C)CC1)n1nc(-c2cc(O)cc(F)c2)c2c(N)ncnc21 (single isomer, unassigned) [Example 46b, 3-1-(4-amino-3-(3-fluoro-5-hydroxyphenyl)-1H-pyrazolo[3,4-d]pyrimidin-1-yl)ethyl)-4-(1-methyl-1,2,3,6-tetrahydropyridin-4-yl)-1H-isochromen-1-one hydrochloride]
- pIC50 [1]: 6.00 to 8.00
- pIC50 [2]: < 6.00

SMILES: CC(c1oc(=O)c2ccccc2c1-c1cccc(CN(C)C)c1)n1nc(-c2cc(O)cc(F)c2)c2c(N)ncnc21 (single isomer, unassigned) [Example 67b, 3-(1-(4-amino-3-(3-fluoro-5-hydroxyphenyl)-1H-pyrazolo[3,4-d]pyrimidin-1-yl)ethyl)-4-(3-((dimethylamino)methyl)phenyl)-1H-isochromen-1-one]
- pIC50 [1]: 6.00 to 8.00

SMILES: CC(c1oc(=O)c2ccccc2c1-c1ccc(CN2CCCCC2)s1)n1nc(-c2cc(O)cc(F)c2)c2c(N)ncnc21 (single isomer, unassigned) [Example 68a, 3-(1-(4-amino-3-(3-fluoro-5-hydroxyphenyl)-1H-pyrazolo[3,4-d]pyrimidin-1-yl)ethyl)-4-(5-(piperidin-1-ylmethyl)thiophen-2-yl)-1H-isochromen-1-one hydrochloride single enantiomers]
- pIC50 [1]: 6.00 to 8.00

SMILES: CC(c1oc(=O)c2ccccc2c1-c1ccc(CN2CCN(CCO)CC2)s1)n1nc(-c2cc(O)cc(F)c2)c2c(N)ncnc21 (single isomer, unassigned) [Example 76a, 3-(1-(4-amino-3-(3-fluoro-5-hydroxyphenyl)-1H-pyrazolo[3,4-d]pyrimidin-1-yl)ethyl)-4-(5-((4-(2-hydroxyethyl)piperazin-1-yl)methyl)thiophen-2-yl)-1H-isochromen-1-one hydrochloride]
- pIC50 [1]: 6.00 to 8.00

SMILES: CC(c1oc(=O)c2ccccc2c1-c1ccc(CCCN(C)C)cc1)n1nc(-c2cc(O)cc(F)c2)c2c(N)ncnc21 (single isomer, unassigned) [Example 138a, 3-(1-(4-amino-3-(3-fluoro-5-hydroxyphenyl)-1H-pyrazolo[3,4-d]pyrimidin-1-yl)ethyl)-4-(4-(3-(dimethylamino)propyl)phenyl)-1H-isochromen-1-one single enantiomers]
- pIC50 [1]: < 6.00

SMILES: CC(c1oc(=O)c2ccccc2c1-c1ccccc1)n1cnc2c(N)ncnc21 (stereo not shown) [Example 5, 3-(1-(6-Amino-9H-1-purin-9-yl)ethyl)-4-phenyl-1H-isochromen-1-one]
- pIC50 [1]: 6.00 to 8.00
- pIC50 [2]: 6.00 to 8.00

SMILES: Cc1cccc(-c2c(C(C)n3cnc4c(N)ncnc43)oc(=O)c3ccccc23)c1 (stereo not shown) [Example 6, 3-(1-(6-Amino-9H-purin-9-yl)ethyl)-4-m-tolyl-1H-isochromen-1-one]
- pIC50 [1]: 6.00 to 8.00
- pIC50 [2]: 6.00 to 8.00

SMILES: CC(c1oc(=O)c2ccccc2c1-c1cccc(F)c1)n1cnc2c(N)ncnc21 (stereo not shown) [Example 7, 3-(1-(6-Amino-9H-purin-9-yl)ethyl)-4-(3-fluorophenyl)-1H-isochromen-1-one]
- pIC50 [1]: 6.00 to 8.00
- pIC50 [2]: 6.00 to 8.00

SMILES: CC(c1oc(=O)c2ccccc2c1-c1cccc(N(C)C)c1)n1cnc2c(N)ncnc21 (stereo not shown) [Example 8, 3-(1-(6-Amino-9H-purin-9-yl)ethyl)-4-(3-(dimethylamino)phenyl)-1H-isochromen-1-one]
- pIC50 [1]: 6.00 to 8.00
- pIC50 [2]: 6.00 to 8.00

SMILES: CC(c1oc(=O)c2ccccc2c1-c1cccc(S(=O)(=O)N2CCOCC2)c1)n1cnc2c(N)ncnc21 (stereo not shown) [Example 9, 3-(1-(6-Amino-9H-purin-9-yl)ethyl)-4-(3-(morpholinosulfonyl)phenyl)-1H-isochromen-1-one]
- pIC50 [1]: 6.00 to 8.00
- pIC50 [2]: 6.00 to 8.00

SMILES: O=c1oc(CSc2ncnc3[nH]cnc23)c(-c2ccccc2)c2ccccc12 [Example 10, 3-((9H-Purin-6-ylthio)methyl)-4-phenyl-1H-isochromen-1-one]
- pIC50 [1]: < 6.00
- pIC50 [2]: < 6.00

SMILES: Cc1cccc(-c2c(C(C)Sc3ncnc4[nH]cnc34)oc(=O)c3ccccc23)c1 (stereo not shown) [Example 13, 3-(1-(9H-Purin-6-ylthio)ethyl)-4-m-tolyl-1H-isochromen-1-one]
- pIC50 [1]: 6.00 to 8.00
- pIC50 [2]: < 6.00

SMILES: CC(Sc1ncnc2[nH]cnc12)c1oc(=O)c2ccccc2c1-c1cccc(F)c1 (stereo not shown) [Example 14, 3-(1-(9H-Purin-6-ylthio)ethyl)-4-(3-fluorophenyl)-1H-isochromen-1-one]
- pIC50 [1]: 6.00 to 8.00
- pIC50 [2]: < 6.00

SMILES: CC(c1oc(=O)c2ccccc2c1-c1cccc(S(=O)(=O)N2CCOCC2)c1)n1ncc2c(N)ncnc21 (stereo not shown) [Example 16, 3-(1-(4-Amino-1H-pyrazolo[3,4-d]pyrimidin-1-yl)ethyl)-4-(3-(morpholinosulfonyl)phenyl)-1H-isochromen-1-one]
- pIC50 [1]: 6.00 to 8.00
- pIC50 [2]: 6.00 to 8.00

SMILES: Cc1cc(-c2c(C(C)n3ncc4c(N)ncnc43)oc(=O)c3ccccc23)ccn1 (stereo not shown) [Example 19, 3-(1-(4-Amino-1H-pyrazolo[3,4-d]pyrimidin-1-yl)ethyl)-4-(2-methylpyridin-4-yl)-1H-isochromen-1-one]
- pIC50 [1]: 6.00 to 8.00

SMILES: CC(c1oc(=O)c2ccccc2c1Cc1ccccc1)n1ncc2c(N)ncnc21 (stereo not shown) [Example 20, 3-(1-(4-Amino-1H-pyrazolo[3,4-d]pyrimidin-1-yl)ethyl)-4-benzyl-1H-isochromen-1-one]
- pIC50 [1]: 6.00 to 8.00

SMILES: CC(c1oc(=O)c2ccccc2c1-c1ccccc1)n1nc(-c2cnc(O)nc2)c2c(N)ncnc21 (stereo not shown) [Example 56, 3-(1-(4-amino-3-(2-hydroxypyrimidin-5-yl)-1H-pyrazolo[3,4-d]pyrimidin-1-yl)ethyl)-4-phenyl-1H-isochromen-1-one]
- pIC50 [1]: 6.00 to 8.00

SMILES: CC(c1oc(=O)c2ccccc2c1-c1ccccc1)n1nc(-c2cncc(O)n2)c2c(N)ncnc21 (stereo not shown) [Example 90, 3-(1-(4-amino-3-(6-hydroxypyrazin-2-yl)-1H-pyrazolo[3,4-d]pyrimidin-1-yl)ethyl)-4-phenyl-1H-isochromen-1-one]
- pIC50 [1]: 6.00 to 8.00

SMILES: CC(c1oc(=O)c2ccccc2c1-c1ccccc1)n1nc(-c2cc(F)cc(Cl)c2)c2c(N)ncnc21 (stereo not shown) [Example 95, 3-(1-(4-amino-3-(3-chloro-5-fluorophenyl)-1H-pyrazolo[3,4-d]pyrimidin-1-yl)ethyl)-4-phenyl-1H-isochromen-1-one]
- pIC50 [1]: < 6.00

SMILES: CC(c1oc(=O)c2ccccc2c1-c1ccccc1)n1nc(-c2cncc(S(C)(=O)=O)c2)c2c(N)ncnc21 (stereo not shown) [Example 96, 3-(1-(4-amino-3-(5-(methylsulfonyl)pyridin-3-yl)-1H-pyrazolo[3,4-d]pyrimidin-1-yl)ethyl)-4-phenyl-1H-isochromen-1-one]
- pIC50 [1]: 6.00 to 8.00

SMILES: CC(c1oc(=O)c2ccccc2c1-c1ccccc1)n1nc(-c2cnc(O)c(F)c2)c2c(N)ncnc21 (stereo not shown) [Example 98, 3-(1-(4-amino-3-(5-fluoro-6-hydroxypyridin-3-yl)-1H-pyrazolo[3,4-d]pyrimidin-1-yl)ethyl)-4-phenyl-1H-isochromen-1-one]
- pIC50 [1]: 6.00 to 8.00

SMILES: CC(c1oc(=O)c2ccccc2c1-c1ccccc1)n1nc(-c2cncc(C(F)(F)F)c2)c2c(N)ncnc21 (stereo not shown) [Example 100, 3-(1-(4-amino-3-(5-(trifluoromethyl)pyridin-3-yl)-1H-pyrazolo[3,4-d]pyrimidin-1-yl)ethyl)-4-phenyl-1H-isochromen-1-one]
- pIC50 [1]: 6.00 to 8.00

SMILES: CC(c1oc(=O)c2ccccc2c1-c1ccccc1)n1nc(-c2cc(O)cc(S(F)(F)(F)(F)F)c2)c2c(N)ncnc21 (stereo not shown) [Example 101, 3-(1-(4-amino-3-(5-hydroxy-3-sulfurpentafluoride)-1H-pyrazolo[3,4-d]pyrimidin-1-yl)ethyl)-4-phenyl-1H-isochromen-1-one]
- pIC50 [1]: 6.00 to 8.00

SMILES: CC(c1oc(=O)c2ccccc2c1-c1ccccc1)n1nc(-c2cncc(C#N)c2)c2c(N)ncnc21 (stereo not shown) [Example 102, 5-(4-amino-1-(1-(1-oxo-4-phenyl-1H-isochromen-3-yl)ethyl)-1H-pyrazolo[3,4-d]pyrimidin-3-yl)nicotinonitrile]
- pIC50 [2]: 6.00 to 8.00

SMILES: CC(Nc1ncnc2sccc12)c1oc(=O)c2ccccc2c1-c1ccccc1 (stereo not shown) [Example 108, 4-phenyl-3-(1-(thieno[2,3-d]pyrimidin-4-ylamino)ethyl)-1H-isochromen-1-one]
- pIC50 [1]: 6.00 to 8.00

SMILES: CC(c1oc(=O)c2ccccc2c1-c1ccccc1)n1nc(-c2ccc3[nH]nc(N)c3c2)c2c(N)ncnc21 (stereo not shown) [Example 113, 3-(1-(4-amino-3-(3-amino-1H-indazol-5-yl)-1H-pyrazolo[3,4-d]pyrimidin-1-yl)ethyl)-4-phenyl-1H-isochromen-1-one]
- pIC50 [1]: 6.00 to 8.00

SMILES: CC(c1oc(=O)c2ccccc2c1-c1ccc(CN2CCNCC2)cc1)n1ncc2c(N)ncnc21 (stereo not shown) [Example 127, 3-(1-(4-amino-1H-pyrazolo[3,4-d]pyrimidin-1-yl)ethyl)-4-(4-(piperazin-1-ylmethyl)phenyl)-1H-isochromen-1-one hydrochloride]
- pIC50 [1]: < 6.00
